Consider one compound from US20190117634A1, “Treatment of Vulvodynia” (Gruenenthal GmbH, priority 2017, published 2019).

Structures are written as SMILES.

The nature of the data set: in vitro permeation/penetration in porcine vaginal tissue (Franz diffusion cell). The class given is in vitro ADME. How it is done:
The permeation/penetration of the formulation according to Example 1 in porcine vaginal tissue was assessed by in vitro experiments.
The in vitro experiments involved the use of a Franz diffusion cell designed to mimic the physiological and anatomical conditions of porcine vaginal tissue in situ. Porcine vaginal tissue skin was positioned between the two halves of a Franz diffusion cell with the vaginal epithelium facing the donor compartment allowing for drug product application. The other side of the porcine vaginal tissue skin faced a receiver fluid comprising 2% w/v Tween 80 in 20% v/v PEG 400 in water.
Prior to dosing of the formulation on the tissue, the integrity of the tissue was assessed as follows: • (i) Porcine vaginal tissue was mounted between the donor and receiver compartments and the cells were sealed together using Parafilm®. • (ii) The donor and receiver chambers were filled with PBS solution and a small magnetic follower was placed in the receiver compartment. • (iii) Cells were equilibrated in a water bath, ensuring a membrane temperature of 32° C. for 30 min. • (iv) The electrodes of the ISO-TECH LCR821 Meter were placed in the receiver chamber through the sampling arm and the donor chamber and the LCR was set at 100 Hz and set to ‘R’ for resistance. • (v) The resistance of the tissue in each Franz cell was measured using a ISO-TECH LCR821 Meter (SOP 3174). Cells with a resistance below the acceptable limits were discarded and remounted.
Following the tissue integrity testing, the PBS solutions were removed from each compartment and the receiver compartments of cells passing the resistance criteria were filled with receiver fluid. Each cell was then equilibrated to ensure a surface temperature of 32° C. (external skin surface temperature) for at least 30 min prior to dosing. An additional Franz cell was also mounted but not dosed (to act as a blank) to assess interference with sample quantification.
A positive displacement pipette was used to apply 6-8 mg of the formulation of table 1 to the tissue surface. Prior to application the weight of each test formulation was verified by weighing the amount dispensed by the positive displacement pipette into an empty vial (n=6).
Receiver fluid (200 μL) was removed at the following time points t=0, 1, 2, 4, 6 and 24 h and transferred to a HPLC vial for analysis. Fresh pre-warmed (37° C.) receiver fluid was used to replace the receiver fluid removed at each time point. Following the 24 h time point, remaining receiver fluid was removed from the Franz cells and the drug was recovered. […]

Setting [1] is: formulation of Example 1, after 24 h, Franz cell.

As for `CN(C)[C@]1(c2cccc(F)c2)CC[C@]2(CC1)c1[nH]c3ccccc3c1CCN2C(=O)/C=C/c1ccccc1` [pharmacologically active compound, cis-(E)-4-(3-fluorophenyl)-2′,3′,4′,9′-tetrahydro-N,N-dimethyl-2′-(1-oxo-3-phenyl-2-propenyl)-spiro[cyclohexane-1,1′[1H]-pyrido[3,4-b]indol]-4-amine], under “formulation of Example 1 (2.60 wt.-% compound), 6-8 mg applied, after 24 h, Franz cell, 32° C.”, the “Mean recovery of the pharmacologically active compound from the epithelium of porcine vaginal tissue” value is 9.72 μg. For the same compound, under setting [1], the “Mean recovery of the pharmacologically active compound from the epithelium of porcine vaginal tissue” value came to 810.21 μg/mL and the “Total concentration presented to vaginal epithelium” value is 1596.04 µM. Besides, the “permeation into the epithelium of porcine vaginal tissue (in words)” value (formulation of Example 1, in vitro, 24 h) is listed as “permeates into the epithelium of porcine vaginal tissue”.
